Data on 2 compounds can be found in patent US20230218571A1 (Thiogenesis Therapeutics, Inc., priority 2020, published 2023).

Series [1] has as its system SARS-CoV-2. Description: Single-dose/multiple dose open-label study in patients with COVID-19. The note with it: patients infected with SARS-CoV-2, end of study. Format: in vivo, human. Here is the method: A single-dose/multiple dose, open-labeled, non-randomized, two-period study of Cysteamine-Pantetheine Disulfide (compound 1) in […] (male and female) with COVID-19 under fasting or fed conditions is performed. Prior to treatment, patients undergo screening to determine study eligibility (Day-1).
Pharmacodynamic Evaluations: SARS-CoV-2 viral load will be obtained from samples collected from Day 0 to Day 15 according to the Schedule of Events.

Series [2] deals with SARS-CoV-2. Briefly: Syrian hamster SARS-CoV-2 infection model. The note with it: 60, 90 or 120 mg/kg per os once a day for 7 days. Format: in vivo. Here is the method: The efficacy of cysteamine-pantetheine disulfide (compound 1) is assessed in the Syrian hamster model. Maximal clinical signs of rapid breathing, weight loss, histopathological changes from the initial exudative phase of diffuse alveolar damage with extensive apoptosis to the later proliferative phase of tissue repair, airway and intestinal involvement with virus nucleocapsid protein expression, high lung viral load, and spleen and lymphoid atrophy associated with marked cytokine activation are observed within the first week of virus challenge. The lung virus titer is between 10^5-10^7 TCID50/g. Challenged index hamsters can consistently infected naïve contact hamsters housed within the same cage, resulting in similar pathology but not weight loss. All infected hamsters can recover and develop mean serum neutralizing antibody titer ≥1:427 fourteen days post-challenge. Immunoprophylaxis with early convalescent serum can achieve significant decrease in lung viral load but not in lung pathology.
Three groups of 3 Syrian hamsters infected by SARS-CoV-2 per group receive cysteamine-pantetheine disulfide (compound 1) per os once a day for 7 days. The first group receives 60 mg/kg, second group 90 mg/kg and third group 120 mg/kg. Clinical status, biological parameters and viral load are characterized every day.

The conditions of series [3]: administered to fasting patients; cited from earlier work.

In the case of `CC(C)(CO)[C@@H](O)C(=O)NCCC(=O)NCCSSCCN` [compound 1, cysteamine-(R)-pantetheine disulfide], in the series with SARS-CoV-2 [1], the “risk of severe COVID-19 outcomes (pneumonitis, ARDS, respiratory failure, septic shock, organ failure, cytokine storm, death)” value is given as “lower risk”. For the same compound, in the series with SARS-CoV-2 [2], the recovery entry is “more rapid recovery”, the symptoms of infection result is “less severe symptoms of infection” and the viral load result is “lower viral load”.
For the compound `NCCS` [cysteamine, 2-aminoethanethiol], the “inter-patient variation in cysteamine plasma levels” value in series [3] is given as “up to four fold”.
